Experimental findings from patent US20150359886A1, “SYSTEM AND METHODS FOR NANOSTRUCTURE PROTECTED DELIVERY OF TREATMENT AGENT AND SELECTIVE RELEASE THEREOF” (priority 2012, published 2015) are described below.

Assay [1] relates to L3.6 cells. In kind it is cell-based. Conditions: for cell death (killing) of pancreatic cancer cells: FIG. 2, single agents even at high doses, combination at relatively low dose; for concentration required for a comparable effect with the exogenously applied treatment: exogenously applied Taxol + C6-ceramide combination, no CNT carrier. Here is the method:
Human pancreatic cancer lines PANC-1, MIA PaCa-2 (MIA) and L3.6 cells culture, cell viability assay (MTT dye assay) and Western blots assay were performed as described in Cao, C., et al. Galpha(i1) and Galpha(i3) are required for epidermal growth factor-mediated activation of the Akt-mTORC1 pathway. Science signaling 2, ra17 (2009).
Accordingly, experiments were carried out to examine the magnitude of chemosensitization of C6-ceramide on Taxol in different cancer cell lines. The pancreatic cancer cell lines L3.6. PANC-1 and MIA PaCa-2 (MIA) cells were selected for this experiment.
Using same pancreatic cancer cells (L3.6), the inductive heating release was we next tested the on-commandinductive-heating release of the encapsulated chemotherapeutic agents (Taxol and C6-ceramide) from CNTs. The drug-loaded CNTs were added to L3.6 cells for 12 hours, allowing them to be taken up by the cells. The cells were then washed with fresh basal medium (DMEM) 5 times to remove residual CNTs from the media, and a 30 min a.c. magnetic field (25 kHz) was applied to these cells to release the encapsulated drugs (Taxol and C6-ceramide) present in CNTs within the cells. After 48 h, the release of the drugs was inferred and assessed by the degree of cell death.

The subject of assay [2] is PANC-1. The assay is described as follows: Cell viability assay (MTT dye assay), PANC-1 pancreatic cancer cells. The class given is cell-based, Human. As to conditions: for cell death (killing) of pancreatic cancer cells: FIG. 2, single agents even at high doses, combination at relatively low dose. Here is the method: (§1) Science signaling 2, ra17 (2009).
(§2) Accordingly, experiments were carried out to examine the magnitude of chemosensitization of C6-ceramide on Taxol in different cancer cell lines. The pancreatic cancer cell lines L3.6. PANC-1 and MIA PaCa-2 (MIA) cells were selected for this experiment. […] However, the side effects noted above remain a challenging problem in this combination regimen and calls for a new delivery method.

The subject of assay [3] is MIA PaCa-2 (MIA). Kind of assay: Cell viability assay (MTT dye assay), MIA PaCa-2 pancreatic cancer cells. In kind it is cell-based, Human. As to conditions: for cell death (killing) of pancreatic cancer cells: FIG. 2, single agents even at high doses, combination at relatively low dose. Here is the method:
as §1, §2
(Formazan colour is commonly taken as a measure of viable cells.)

[4] abbreviates: sensitization of Taxol-induced cell death.

For the compound `CCCCCCCCCCCCC/C=C/[C@@H](O)[C@H](CO)NC(=O)CCCCC` [C6-ceramide], the “cell death (killing) of pancreatic cancer cells” value in assay [1] (L3.6), in assay [2] and in assay [3] was “limited killing” throughout. The “concentration needed to reach the chemosensitization effect” value in assay [1] (L3.6, sensitization of Taxol-induced cell death) was 5-10 micrograms per milliliter; in assay [2] (setting [4]), 5-10 micrograms per milliliter; in assay [3] (setting [4]) it was 5-10 micrograms per milliliter. For the same compound, in assay [1], the “concentration required for a comparable effect with the exogenously applied treatment” value was determined as 10 µg/mL.

Take `CC(=O)O[C@H]1C(=O)[C@@]2(C)[C@H]([C@H](OC(=O)c3ccccc3)[C@]3(O)C[C@H](OC(=O)[C@H](O)[C@@H](NC(=O)c4ccccc4)c4ccccc4)C(C)=C1C3(C)C)[C@]1(OC(C)=O)CO[C@@H]1C[C@@H]2O` [Taxol, Paclitaxel]: the “cell death (killing) of pancreatic cancer cells” value in assay [1] (L3.6), in assay [2] and in assay [3] was “limited killing” throughout. The “concentration required for a comparable effect with the exogenously applied treatment” value in assay [1] is 3 µg/mL.
